Legend:
HIV-1IIIB [1] = test: time-of-addition assay; format: cell-based; settings: 2.5 μM added 8 hrs post-infection
Description: (§1) Assessment of anti-HIV-1 infectivity. […] Reactions were terminated by addition of 1N H2SO4.
MT-2 cells were incubated with HIV-1IIIB at 37° C. for 0, 1, 2, 3, 4, 6, and 8 hrs, respectively, before addition of the test compounds at 10 μg/ml. AZT (2.5 μM) was used as a control. After culture for another 2 hrs, the cells were washed to remove the free virus and compounds. The supernatants were collected on day 4 post-infection for measurement of p24 production.

[2] = test system: MT-2 & H9/HIV-1IIIB (clade B, X4); test: cell-cell fusion, dye transfer assay; format: cell-based; settings: H9/HIV-1IIIB with MT-2 cells
Description: Inhibition of cell-cell fusion. A dye transfer assay was used for detection of HIV-1 mediated cell fusion as previously described (21, 24, 34). H9/HIV-1IIIB cells were labeled with a fluorescent reagent, Calcein-AM (Molecular Probes, Inc., Eugene, Oreg.) and then incubated with MT-2 cells (ratio=1:5) in 96-well plates at 37° C. for 2 hrs in the presence or absence of compounds tested. The fused and unfused Cacein-labeled HIV-1-infected cells were counted under an inverted fluorescence microscope (Zeiss, Germany) with an eyepiece micrometer disc. The percentage of inhibition of cell fusion and the IC50 values were calculated as previously described (21).

HIV-1IIIB [3] = test: inhibition of HIV-1IIIB replication (p24 production) in MT-2 cells; format: cell-based; settings: concentration up to 80 μg/ml
Excerpt: as §1

[4] = target: gp41 six-helix bundle formed by N36 and C34 (Human immunodeficiency virus type 1 group M subtype B, UniProt P04578); settings: for inhibitory activity on gp41 six-helix bundle formation (sandwich ELISA): graded concentrations, up to 80 μg/ml, compound preincubated with N36; for inhibition of six-helix bundle formation between N36 and C34 (screening ELISA): single dose 25 μg/ml
Description: ELISA for screening for compounds that inhibit the gp41 six-helix bundle formation. A sandwich ELISA as previously described (23) was used to screen for compounds that inhibit the gp41 six-helix bundle formation. Briefly, peptide N36 (2 μM) was pre-incubated with a test compound at the indicated concentrations at 37° C. for 30 min, followed by addition of C34 (2 μM). In the control experiments, N36 was pre-incubated with C34 at 37° C. for 30 min, followed by addition of the test compound. After incubation at 37° C. for 30 min, the mixture was added to wells of a 96-well polystyrene plate (Costar, Corning Inc., Corning, N.Y.) which were precoated with IgG (2 μg/ml) purified from rabbit antisera directed against the N36/C34 mixture. […] Absorbance at 450 nm was measured using an ELISA reader (Ultra 384, Tecan, Research Triangle Park, N.C.). The percent inhibition by the compounds was calculated as previously described (18) and the concentration for 50% inhibition (IC50) was calculated using the software designated Calcusyn (7), kindly provided by Dr. T. C. Chou (Sloan-Kettering Cancer Center, New York, N.Y.).

[5] = test system: HIV-1NL4-3 pseudotyped viruses expressing HIV-1SF162 (R5) Env with U87-T4-CCR5 cells; test: virus-cell fusion, luciferase assay; format: cell-based; settings: HIV-1SF162 (R5) Env pseudotyped virus
Description: Inhibition of virus-cell fusion. Inhibition of fusion of HIV-1NL4-3 pseudotyped viruses expressing envelope glycoprotein of the HIV-1HXB2 (X4) and HIV-1SF162 (R5) strains with U87-T4-CXCR4 and U87-T4-CCR5 cells, respectively, was measured as previously described (15). Briefly, 100 μl of U87-T4-CXCR4 and U87-T4-CCR5 cells, respectively, at 1×10^5 cells/ml were added to the wells of a 96-well tissue culture plate and cultured at 37° C. overnight. Fifty μl of a test compound at graded concentrations was mixed with 50 μl of the HIV-1NL4-3-luc viruses pseudotyped with the HIV-1HXB2 and HIV-1SF162 Env, prepared as described previously (15), at a final p24 concentration of 0.5 ng/ml in the presence of Polybrene (10 μg/ml). After incubation at 37° C. for 30 min, the mixtures were added to the cells and incubated at 37° C. overnight. The supernatants were removed and fresh culture medium was added. After incubation at 37° C. for 3 days, the cells were washed twice with PBS and lysed with the lysing reagent included in a luciferase assay kit (Promega, Corp., Madison, Wis.). The cell lysates were transferred to a 96-well flat-bottom luminometer plate (Costar, Corning Inc., Corning, N.Y.) and luciferase substrate (Promega) was added. The luciferase activity was measured immediately on a luminometer (Ultra 384, Tecan). The % inhibition and IC50 values were calculated as described above.

[6] = test system: H9/HIV-1IIIB cells cocultured with MT-2 cells; test: syncytium-formation assay for screening HIV-1 fusion inhibitors; format: cell-based; settings: single dose 25 μg/ml
Excerpt: Syncytium-formation assay for screening HIV-1 fusion inhibitors. […] HIV-1 induced syncytium formation was observed under an inverted microscope and scored as “−” (no syncytium was observed), “±” (about 50% syncytia were inhibited), and “+” (no syncytium formation was inhibited). The compounds scored with “−” and “±” were selected for further screening by ELISA for inhibitors against the gp41 six-helix bundle formation.

gp120-CD4 binding = target: T1, gp120-CD4 binding (Human immunodeficiency virus type 1 group M subtype B, UniProt P03375); design: species or system HIV-1; settings: 10 μg/ml
T1 construct: purchased Immunodiagnostics, Woburn, Mass; (gp120); Genentech Inc., South San Francisco, Calif; (sCD4)
Description: Inhibition of gp120 binding to CD4. Wells of polystyrene plates was coated with 100 μl of sheep anti-gp120 antibody D7324 (Cliniqa, Fallbrook, Calif.) at 2 μg/ml in carbonate buffer (pH 9.6) at 4° C. overnight and blocked with 1% dry fat-free milk in PBS at 37° C. for 1 h. One hundred microliters of recombinant gp120 molecule (Immunodiagnostics, Woburn, Mass.) at 0.5 μg/ml in PBS was added and incubated at 37° C. for 1 h, followed by three washes with PBS-T. Soluble CD4 (sCD4) at 0.25 μg/ml was added in the presence of a compound (25 μM) and incubated at 37° C. for 1 h. After three washes, rabbit anti-sCD4 IgG (0.25 μg/ml in PBS, 100 μl/well) was added and incubated at 37° C. for 1 h. Binding of rabbit anti-sCD4 IgG was determined by sequential addition of biotinylated goat-anti-rabbit IgG, SA-HRP, and TMB. After the reactions were terminated, absorbance at 450 nm was recorded in an ELISA reader (Tecan).
HIV-1 envelope glycoprotein gp120 was captured by the anti-gp120 antibody coated onto wells of polystyrene plates. […] After extensive washes, CD4 molecule bound to gp120 was quantitated by ELISA using anti-CD4 antibody.

CXCR4 = target: T2, CXCR4 (Homo sapiens, UniProt P61073); test: inhibition of anti-CXCR4 antibody 12G5 binding to CXCR4-expressing cells, cell-based ELISA; settings: 25 μM
T2 construct: expressed in transfected cells; host or cells: U373-MAGI-CXCR4CEM cells
Description: Inhibition of anti-CXCR4 antibody binding to CXCR4-expressing cells. The inhibition of the binding of anti-CXCR4 antibody to CXCR4-expressing cells was determined using a cell-based ELISA as described previously (52). Briefly, U373-MAGI-CXCR4CEM cells (1×10^5/well) which express CXCR4 molecules were cultured in a 96-well plate at 37° C. overnight. The cells were fixed with 5% formaldehyde at room temperature for 15 min and washed with PBS-T. The cells were incubated with anti-CXCR4 mAb 12G5 at 37° C. for 1 h in the presence or absence of compounds tested. Isotype IgG2a was used as a control.

Chain of gp41 six-helix bundle formed by N36 and C34 (P04578 546-581): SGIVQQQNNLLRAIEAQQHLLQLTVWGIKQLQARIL
T2 sequence (P61073 whole entry): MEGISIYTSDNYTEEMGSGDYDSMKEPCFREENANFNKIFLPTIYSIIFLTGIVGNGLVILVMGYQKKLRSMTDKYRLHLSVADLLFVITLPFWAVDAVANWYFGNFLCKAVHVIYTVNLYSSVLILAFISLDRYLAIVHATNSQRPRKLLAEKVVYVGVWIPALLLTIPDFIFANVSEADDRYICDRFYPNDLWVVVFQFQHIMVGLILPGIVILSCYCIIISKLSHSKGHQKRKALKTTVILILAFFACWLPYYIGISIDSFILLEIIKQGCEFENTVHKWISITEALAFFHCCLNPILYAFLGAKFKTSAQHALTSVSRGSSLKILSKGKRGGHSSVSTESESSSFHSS

Compound	inhibitory activity on cell-cell fusion [2]	inhibitory activity on HIV-1IIIB replication (HIV-1IIIB [3])	inhibitory activity on gp41 six-helix bundle formation (sandwich ELISA) [4]	inhibition of six-helix bundle formation between N36 and C34 (screening ELISA) [4]	inhibitory activity on virus-cell fusion [5]	inhibition of HIV-1 mediated syncytium formation [6]	also measured
Cc1cn([C@H]2C[C@H](N=[N+]=[N-])[C@@H](CO)O2)c(=O)[nH]c1=O [AZT, reference compound]							inhibition of HIV-1 replication, time of addition (HIV-1IIIB [1]): still effective
Cc1ccc(C)n1-c1cccc(O)c1 [NB-177, reference compound]	no inhibitory activity	no inhibitory activity	no inhibitory activity	no inhibitory activity	no inhibitory activity	no inhibitory activity	
Clc1ccc(-n2cccc2)cc1 [NB-178, reference compound]	no inhibitory activity	no inhibitory activity	no inhibitory activity	no inhibitory activity	no inhibitory activity	no inhibitory activity	
CN1C(=O)[C@@H](c2cc(Cl)c(O)c(Cl)c2)NC(=O)[C@@H]2NC(=O)[C@@H](c3cc(Cl)c(O)c(Cl)c3)NC(=O)[C@H](NC(=O)C(=O)c3cc(Cl)c(O)c(Cl)c3)Cc3c[nH]c4c(cccc34)-c3cc2cc(c3O)Oc2ccc(cc2)C[C@H]1C(=O)N[C@@H](C(=O)O)c1ccc(O)cc1 [chloropeptin, reference compound]							inhibition of gp120-CD4 binding (gp120-CD4 binding): markedly inhibited
[Tyr-5,12, Lys-7]polyphemusin II [Example T22, reference compound]							inhibition of 12G5 binding to U373-MAGI-CXCR4CEM cells (CXCR4): significantly inhibited

— patent US7241803B2, “Compounds for inhibition of HIV infection by blocking HIV entry” (New York Blood Center, priority 2002, dated 2007)
